Laboratory results: publication PMC7587356, “High-Throughput Screening for Inhibitors of the SARS-CoV-2 Protease Using a FRET-Biosensor” (Molecules, 2020)
Counter-ions that a name gives are not always drawn. Like-named read-outs stand apart in the source and are kept apart here.

Target: SARS-CoV-2 3CLpro (Severe acute respiratory syndrome coronavirus 2, UniProt P0DTD1)
Experiment: biochemical
Format: biochemical
Parameters: Replicate_1 / Replicate_2 / mean / mean (LOPAC_screen_w_protease): unit not given here
Settings: for inhibition at 5 µM: 4 h
[1] = sheet LOPAC_screen_w_protease, LOPAC1280 primary screen with protease, 5 µM compound, mean of the two replicates, read-out: mean
[2] = sheet LOPAC_screen_w_protease, LOPAC1280 primary screen with protease, 5 µM compound, replicate 1, read-out: Replicate_1
[3] = sheet LOPAC_screen_w_protease, LOPAC1280 primary screen with protease, 5 µM compound, replicate 2, read-out: Replicate_2
[4] = sheet LOPAC_screen_w_protease, primary screen with protease, 5 µM, mean of two replicates, read-out: mean
[5] = sheet LOPAC_screen_w_protease, primary screen with protease, 5 µM, replicate 1, read-out: Replicate_1
[6] = sheet LOPAC_screen_w_protease, primary screen with protease, 5 µM, replicate 2, read-out: Replicate_2
[7] = sheet LOPAC_screen_w_protease, primary screen with protease, mean of two replicates, read-out: mean
[8] = sheet LOPAC_screen_w_protease, primary screen with protease, replicate 1, read-out: Replicate_1
[9] = sheet LOPAC_screen_w_protease, primary screen with protease, replicate 2, read-out: Replicate_2
[10] = sheet LOPAC_screen_w_protease, primary screen of LOPAC1280 at 5 µM with protease, mean of the two replicates, read-out: mean
[11] = sheet LOPAC_screen_w_protease, primary screen of LOPAC1280 at 5 µM with protease, replicate 1, read-out: Replicate_1
[12] = sheet LOPAC_screen_w_protease, primary screen of LOPAC1280 at 5 µM with protease, replicate 2, read-out: Replicate_2
[13] = sheet LOPAC_screen_w_protease, LOPAC1280 primary screen at 5 µM, with protease, mean of the two replicates, read-out: mean
[14] = sheet LOPAC_screen_w_protease, LOPAC1280 primary screen at 5 µM, with protease, replicate 1, read-out: Replicate_1
[15] = sheet LOPAC_screen_w_protease, LOPAC1280 primary screen at 5 µM, with protease, replicate 2, read-out: Replicate_2

`O=c1nc2[nH]c3ccccc3nc-2c(=O)[nH]1` [Alloxazine] gave an inhibition at 5 µM [1] of 4.73%, an inhibition at 5 µM [2] of 4.91% and an inhibition at 5 µM [3] of 4.55%.

With `C=CCc1ccccc1OCC(O)CNC(C)C` (stereo not drawn) [Alprenolol hydrochloride] the inhibition at 5 µM [4] was 0.137%, the inhibition at 5 µM [5] was 0.164% and the inhibition at 5 µM [6] was 0.11%.

`NC12CC3CC(CC(C3)C1)C2` [Amantadine hydrochloride] was tested, and the inhibition at 5 µM [7] was 2.48%, the inhibition at 5 µM [8] was 1.91% and the inhibition at 5 µM [9] was 3.05%.

`CCn1cc(C(=O)O)c(=O)c2ccc(Cc3ccccc3)nc21` [Amfonelic acid] showed an inhibition at 5 µM [10] of 3.23%, an inhibition at 5 µM [11] of 4.99% and an inhibition at 5 µM [12] of 1.47%.

For `N=C(N)NC(=O)c1nc(Cl)c(N)nc1N` [Amiloride hydrochloride], the inhibition at 5 µM [4] was 0.179%, the inhibition at 5 µM [5] was -0.488% and the inhibition at 5 µM [6] was 0.846%.

`CN1[C@@H]2CC[C@H]1C[C@@H](OC(c1ccccc1)c1ccccc1N)C2` (stereo partly drawn) [Aminobenztropine] gave an inhibition at 5 µM (sheet LOPAC_screen_w_protease, primary screen with protease, compound at 5 µM, mean of two replicates, read-out: mean) of 3.04%, an inhibition at 5 µM (sheet LOPAC_screen_w_protease, primary screen with protease, compound at 5 µM, replicate 1, read-out: Replicate_1) of 2.54% and an inhibition at 5 µM (sheet LOPAC_screen_w_protease, primary screen with protease, compound at 5 µM, replicate 2, read-out: Replicate_2) of 3.53%.

`Cl.N=C(N)NN` [Aminoguanidine hydrochloride] gave a mean (sheet LOPAC_screen_w_protease, primary screen with protease, mean of two replicates) of 2.381, a Replicate_1 (sheet LOPAC_screen_w_protease, primary screen with protease, replicate 1) of 2.212 and a Replicate_2 (sheet LOPAC_screen_w_protease, primary screen with protease, replicate 2) of 2.55.

For `Cn1c(=O)c2[nH]cnc2n(C)c1=O.Cn1c(=O)c2[nH]cnc2n(C)c1=O.NCCN` [Aminophylline ethylenediamine], the Replicate_1 was 0.5539, the Replicate_2 was -0.4553 and the mean was 0.04927.

For `Nc1nc(N)c2nc(CNc3ccc(C(=O)N[C@@H](CCC(=O)O)C(=O)O)cc3)cnc2n1` [Aminopterin], the inhibition at 5 µM (LOPAC1280 primary screen with protease, 5 µM compound, replicate 1, read-out: Replicate_1 (LOPAC_screen_w_protease)) was 2.12%, the inhibition at 5 µM (LOPAC1280 primary screen with protease, 5 µM compound, replicate 2, read-out: Replicate_2 (LOPAC_screen_w_protease)) was 1.52% and the “mean (LOPAC_screen_w_protease)” value (LOPAC1280 primary screen with protease, 5 µM compound, mean of the two replicates) was 1.819.

With `CCCCc1oc2ccccc2c1C(=O)c1cc(I)c(OCCN(CC)CC)c(I)c1` [Amiodarone hydrochloride] the inhibition at 5 µM (read-out: Replicate_1) was 2.09%, the inhibition at 5 µM (read-out: Replicate_2) was 4.04% and the inhibition at 5 µM (read-out: mean) was 3.06%.

`CN(C)CCCO[C@@H]1[C@H]2OC(C)(C)O[C@H]2O[C@@H]1[C@H](O)CO` [Amiprilose hydrochloride] was tested, and the inhibition at 5 µM (sheet LOPAC_screen_w_protease, LOPAC1280 at 5 µM, mean of two replicates, read-out: mean) was 1.08%, the inhibition at 5 µM (sheet LOPAC_screen_w_protease, LOPAC1280 at 5 µM, replicate 1, read-out: Replicate_1) was 1.63% and the inhibition at 5 µM (sheet LOPAC_screen_w_protease, LOPAC1280 at 5 µM, replicate 2, read-out: Replicate_2) was 0.526%.

With `CN(C)CCC=C1c2ccccc2CCc2ccccc21` [Amitriptyline hydrochloride] the inhibition at 5 µM [13] was 0.72%, the inhibition at 5 µM [14] was 0.391% and the inhibition at 5 µM [15] was 1.05%.

`N.S=C(S)N1CCCC1` [Ammonium pyrrolidinedithiocarbamate] was tested, and the “mean (LOPAC screen with protease)” value (sheet LOPAC_screen_w_protease, primary screen at 5 µM, mean of two replicates) was 72.0091, the “Replicate_1 (LOPAC screen with protease)” value (sheet LOPAC_screen_w_protease, primary screen at 5 µM, replicate 1) was 73.369 and the “Replicate_2 (LOPAC screen with protease)” value (sheet LOPAC_screen_w_protease, primary screen at 5 µM, replicate 2) was 70.6492.

For `Clc1ccc2c(c1)C(N1CCNCC1)=Nc1ccccc1O2` [Amoxapine], the inhibition at 5 µM [10] was 3.27%, the inhibition at 5 µM [11] was 3.65% and the inhibition at 5 µM [12] was 2.89%.

Molecule `CCNC(=O)N1CCN(CCCC(c2ccc(F)cc2)c2ccc(F)cc2)CC1` [Amperozide hydrochloride] has an inhibition at 5 µM [4] of 0.1%, an inhibition at 5 µM [5] of 0.58% and an inhibition at 5 µM [6] of -0.38%.

Molecule `COc1cc(NS(C)(=O)=O)ccc1Nc1c2ccccc2nc2ccccc12` [Amsacrine hydrochloride] has an inhibition at 5 µM [1] of 4.23%, an inhibition at 5 µM [2] of 4.22% and an inhibition at 5 µM [3] of 4.24%.

Molecule `N=c1ccn2c(n1)O[C@H]1[C@H](O)[C@@H](CO)O[C@H]12` [Ancitabine hydrochloride] has an inhibition at 5 µM [7] of 2.45%, an inhibition at 5 µM [8] of 2.42% and an inhibition at 5 µM [9] of 2.49%.

`C[C@]12CC[C@@H](O)C[C@@H]1CC[C@@H]1[C@@H]2CC[C@]2(C)C(=O)CC[C@@H]12` [Androsterone] gave an inhibition at 5 µM (read-out: Replicate_1) of 1.73%, an inhibition at 5 µM (read-out: Replicate_2) of 3.02% and an inhibition at 5 µM (read-out: mean) of 2.38%.

For `COc1ccc(C(=O)N2CCCC2=O)cc1` [Aniracetam], the inhibition at 5 µM (sheet LOPAC_screen_w_protease, primary screen at 5 µM, mean of two replicates, read-out: mean (LOPAC screen with protease)) was 6.69%, the inhibition at 5 µM (sheet LOPAC_screen_w_protease, primary screen at 5 µM, replicate 1, read-out: Replicate_1 (LOPAC screen with protease)) was 9.93% and the inhibition at 5 µM (sheet LOPAC_screen_w_protease, primary screen at 5 µM, replicate 2, read-out: Replicate_2 (LOPAC screen with protease)) was 3.46%.

Work on `Cl.c1ccc(CN(CC2=NCCN2)c2ccccc2)cc1` [Antozoline hydrochloride] yielded a mean (sheet LOPAC_screen_w_protease, primary screen of LOPAC1280 at 5 µM with protease, mean of the two replicates) of 3.208, a Replicate_1 (sheet LOPAC_screen_w_protease, primary screen of LOPAC1280 at 5 µM with protease, replicate 1) of 3.9302 and a Replicate_2 (sheet LOPAC_screen_w_protease, primary screen of LOPAC1280 at 5 µM with protease, replicate 2) of 2.486.

With `O=c1cc(-c2ccc(O)cc2)oc2cc(O)cc(O)c12` [Apigenin] the inhibition at 5 µM (read-out: Replicate_1) was 0.663%, the inhibition at 5 µM (read-out: Replicate_2) was -0.402% and the inhibition at 5 µM (read-out: mean) was 0.131%.

`NC(N)=NCCCCN=C(N)N` [Arcaine sulfate] gave an inhibition at 5 µM [13] of 0.608%, an inhibition at 5 µM [14] of 1.59% and an inhibition at 5 µM [15] of -0.37%.
